Data set [1] deals with Phaedon cochleariae. The experiment in a line: Phaedon test (spray application). The format is in vivo. The settings on record: topical, 168 h, spray on Chinese cabbage leaves, after 7 d, read-out: Kill rate in % after 7 d. As to the method:
Phaedon Test (Spray Application) [table] To produce a suitable preparation of active compound, 1 part by weight of active compound is mixed with the stated amounts of solvent and emulsifier, and the concentrate is diluted with emulsifier-containing water to the desired concentration. Chinese cabbage leaves (Brassica pekinensis) are treated by being sprayed with the preparation of the active compound of the desired concentration and are infested with mustard beetle larvae (Phaedon cochleariae) after the leaves have dried.

In data set [2] the test system is Spodoptera frugiperda. Description: Spodoptera frugiperda test (spray application). It is filed as in vivo. Particulars: topical, 168 h, spray on maize leaf slices, after 7 d, read-out: Kill rate in % after 7 d. As to the method: Spodoptera frugiperda Test (Spray Application)
(§1) To produce a suitable preparation of active compound, 1 part by weight of active compound is mixed with the stated amounts of solvent and emulsifier, and the concentrate is diluted with emulsifier-containing water to the desired concentration.
Maize leave slices (Zea mays) are treated by being sprayed with the preparation of the active compound of the desired concentration and are infested with caterpillars of the fall army worm (Spodoptera frugiperda) after the leaves have dried.
(§2) After the specified period of time, the mortality in % is determined. 100% means that all the […] have been killed; 0% means that none of the […] have been killed.

Data set [3] concerns Myzus persicae. The experiment in a line: Myzus test (spray application). It is filed as in vivo. The settings on record: topical, 120 h, spray on Chinese cabbage leaves, after 5 d, read-out: Kill rate in % after 5 d. Here is the method:
Myzus Test (Spray Application)
as §1
Chinese cabbage leaves (Brassica pekinensis), which are infested by the green peach aphid (Myzus persicae), are treated by being sprayed with the preparation of the active compound of the desired concentration.
as §2

Data set [4] concerns Spodoptera exigua. The experiment in a line: Spodoptera exigua test. It is filed as in vivo. Particulars: 168 h, cabbage leaves dipped, after 7 d, read-out: Kill rate in % after 7 d. Here is the method:
as §1
Cabbage leaves (Brassica oleracea) are treated by being dipped into the preparation of active compound of the desired concentration and are populated with caterpillars of the army worm (Spodoptera exigua) while the leaves are still moist.
(§3) After the desired period of time, the kill in % is determined. 100% means that all caterpillars have been killed; 0% means that none of the caterpillars have been killed.

Data set [5] relates to Heliothis armigera. Description: Heliothis armigera test. Particulars: Helicoverpa armigera, 168 h, soybean shoots dipped, after 7 d, read-out: Kill rate in % after 7 d. The format is in vivo. Here is the method:
as §1
Soybean shoots (Glycine max) are treated by being dipped into the preparation of active compound of the desired concentration and are populated with caterpillars of Heliothis armigera while the leaves are still moist.
as §3

In the case of `CCS(=O)(=O)C[C@H](C)NC(=O)c1c(I)cccc1C(=O)Nc1ccc(C(F)(C(F)(F)F)C(F)(F)Br)cc1C` (stereo partly shown) [Compound 2], the pest or weed control at 20 g/ha in data set [1] came out at 100%.

As to `CCSC[C@H](C)NC(=O)c1c(I)cccc1C(=O)Nc1ccc(C(F)(C(F)F)C(F)(F)F)cc1Br` (stereo partly shown) [Compound 6], the pest or weed control at 20 g/ha in data set [2] worked out at 100%.

As to `CCS(=O)(=O)C[C@H](C)NC(=O)c1c(I)cccc1C(=O)Nc1ccc(C(C(F)F)C(F)(F)F)cc1C` (stereo partly shown) [Compound 7], in data set [3], the pest or weed control at 100 g/ha was 100%.

Regarding `CCSC[C@H](C)NC(=O)c1c(I)cccc1C(=O)Nc1ccc(C(F)(C(F)F)C(F)(F)F)cc1F` (stereo partly shown) [Compound 8], the melting point was 138 to 141 °C. Moreover, in data set [4], the pest or weed control at 20 ppm stood at 100%.

`CSC[C@H](C)NC(=O)c1c(I)cccc1C(=O)Nc1ccc(C(F)(C(F)(F)F)C(F)(F)Br)cc1C` (stereo partly drawn) [Compound 9, N^1-[4-(2-Bromo-1,2,2-trifluoro-1-trifluoromethyl-ethyl)-2-methyl-phenyl]-3-iodo-N^2-[(S)-1-methyl-2-methylsulfanyl-ethyl]-phthalamide]: the melting point was found to be 124 °C. Also, the pest or weed control at 20 ppm in data set [5] was found to be 100%.

For `CSC[C@H](C)NC(=O)c1c(I)cccc1C(=O)Nc1ccc(C(F)(C(F)F)C(F)(F)F)cc1C` (stereo partly shown) [Compound 10], in data set [1], the pest or weed control at 20 g/ha came to 100%.

Turning to `CSC[C@H](C)NC(=O)c1c(I)cccc1C(=O)Nc1ccc(C(F)(C(F)F)C(F)(F)F)cc1Cl` (stereo partly shown) [Compound 12], the pest or weed control at 20 g/ha in data set [2] worked out at 100%.

The molecule `CCS(=O)(=O)C[C@H](C)NC(=O)c1c(I)cccc1C(=O)Nc1ccc(C(F)(C(F)F)C(F)(F)F)cc1C` (stereo partly shown) [Compound 13] came in with a melting point of 112 °C. Moreover, the pest or weed control at 20 ppm in data set [4] stood at 100%.

`CSC[C@H](C)NC(=O)c1c(I)cccc1C(=O)Nc1ccc(C(C(F)F)C(F)(F)F)cc1Cl` (stereo partly shown) [Compound 14]: the pest or weed control at 20 ppm in data set [5] worked out at 100%. Further, the pest or weed control at 100 g/ha in data set [3] came to 100%.

As to `CSC[C@H](C)NC(=O)c1c(I)cccc1C(=O)Nc1ccc(C(F)(C(F)F)C(F)(F)F)cc1Br` (stereo partly shown) [Compound 15], the pest or weed control at 20 g/ha in data set [1] is 100%.

As to `CSC[C@H](C)NC(=O)c1c(I)cccc1C(=O)Nc1ccc(C(F)(C(F)F)C(F)(F)F)cc1F` (stereo partly shown) [Compound 16], in data set [2], the pest or weed control at 20 g/ha came to 100%.

Turning to `CSC[C@H](C)NC(=O)c1c(I)cccc1C(=O)Nc1ccc(C(C(F)F)C(F)(F)F)cc1F` (stereo partly shown) [Compound 17], the pest or weed control at 100 g/ha in data set [3] is 100%.

Consider `Cc1cc(C(F)(C(F)(F)F)C(F)(F)Br)ccc1NC(=O)c1cccc(I)c1C(=O)N[C@@H](C)CS(C)(=O)=O` (stereo partly drawn) [Compound 19, N^1-[4-(2-Bromo-1,2,2-trifluoro-1-trifluoromethyl-ethyl)-2-methyl-phenyl]-3-iodo-N^2-[2-methanesulfonyl-(S)-1-methyl-ethyl]-phthalamide], for which the melting point is 128 °C. In addition, in data set [4], the pest or weed control at 20 ppm turned out to be 100%.

As for `Cc1cc(C(C(F)F)C(F)(F)F)ccc1NC(=O)c1cccc(I)c1C(=O)N[C@@H](C)CS(C)(=O)=O` (stereo partly shown) [Compound 20], the melting point came to 123 °C. Also, in data set [5], the pest or weed control at 20 ppm amounted to 100%.

`CSC[C@H](C)NC(=O)c1c(I)cccc1C(=O)Nc1ccc(C(C(F)F)C(F)(F)F)cc1Br` (stereo partly shown) [Compound 22]: the pest or weed control at 20 g/ha in data set [1] was 100%.

With `CCS(=O)(=O)C[C@H](C)NC(=O)c1c(I)cccc1C(=O)Nc1ccc(C(C(F)F)C(F)(F)F)cc1Cl` (stereo partly shown) [Compound 26], the pest or weed control at 100 g/ha in data set [3] is 100%. In addition, in data set [2], the pest or weed control at 20 g/ha was 100%.

For the molecule `C[C@@H](CS(C)(=O)=O)NC(=O)c1c(I)cccc1C(=O)Nc1ccc(C(F)(C(F)F)C(F)(F)F)cc1Cl` (stereo partly shown) [Compound 27], the melting point was 184 °C. Further, in data set [4], the pest or weed control at 20 ppm was determined as 100%.

In the case of `CSC[C@H](C)NC(=O)c1c(I)cccc1C(=O)Nc1ccc(C(F)(C(F)F)C(F)(F)F)cc1C#N` (stereo partly shown) [Compound 29], in data set [1], the pest or weed control at 20 g/ha was 83%.

With `C[C@@H](CS(C)(=O)=O)NC(=O)c1c(I)cccc1C(=O)Nc1ccc(C(F)(C(F)F)C(F)(F)F)cc1Br` (stereo partly shown) [Compound 30], the pest or weed control at 20 g/ha in data set [2] worked out at 100%.

With `CSC[C@H](C)NC(=O)c1c(Cl)cccc1C(=O)Nc1ccc(C(F)(C(F)F)C(F)(F)F)cc1C` (stereo partly shown) [Compound 39], the pest or weed control at 20 g/ha in data set [2] was found to be 100%.

Consider `CSC[C@H](C)NC(=O)c1c(Cl)cccc1C(=O)Nc1ccc(C(C(F)F)C(F)(F)F)cc1C` (stereo partly shown) [Compound 40], for which the melting point came out at 105 °C. The pest or weed control at 20 ppm in data set [5] was determined as 100%.

In the case of `CSC[C@H](C)NC(=O)c1c(Cl)cccc1C(=O)Nc1ccc(C(F)(C(F)F)C(F)(F)F)cc1Cl` (stereo partly shown) [Compound 41], the pest or weed control at 20 g/ha in data set [1] was found to be 100%.

As to `Cc1cc(C(F)(C(F)(F)F)C(F)(F)Br)ccc1NC(=O)c1cccc(Cl)c1C(=O)N[C@@H](C)CS(C)(=O)=O` (stereo partly shown) [Compound 43], the pest or weed control at 100 g/ha in data set [3] came to 100%.

Consider `CCSC[C@H](C)NC(=O)c1c(Cl)cccc1C(=O)Nc1ccc(C(F)(C(F)(F)F)C(F)(F)Br)cc1C` (stereo partly shown) [Compound 45], for which, in data set [1], the pest or weed control at 20 g/ha was 100%.

On to `C[C@@H](CS(C)(=O)=O)NC(=O)c1c(Cl)cccc1C(=O)Nc1ccc(C(C(F)F)C(F)(F)F)cc1Cl` (stereo partly shown) [Compound 48], for which the melting point turned out to be 198 °C. For the same molecule, the pest or weed control at 20 ppm in data set [5] was 100%.

Turning to `CCS(=O)(=O)C[C@H](C)NC(=O)c1c(Cl)cccc1C(=O)Nc1ccc(C(F)(C(F)(F)F)C(F)(F)Br)cc1C` (stereo partly shown) [Compound 49], the pest or weed control at 20 g/ha in data set [2] turned out to be 100%.

With `CCSC[C@H](C)NC(=O)c1c(Cl)cccc1C(=O)Nc1ccc(C(F)(C(F)F)C(F)(F)F)cc1Cl` (stereo partly shown) [Compound 50], the pest or weed control at 20 g/ha in data set [1] was 100%.

As for `CCSC[C@H](C)NC(=O)c1c(Cl)cccc1C(=O)Nc1ccc(C(C(F)F)C(F)(F)F)cc1Cl` (stereo partly shown) [Compound 51], in data set [3], the pest or weed control at 100 g/ha amounted to 100%.

With `CCSC[C@H](C)NC(=O)c1c(Br)cccc1C(=O)Nc1ccc(C(F)(C(F)F)C(F)(F)F)cc1Cl` (stereo partly shown) [Compound 53], the melting point was 148 °C. For the same molecule, the pest or weed control at 20 ppm in data set [5] amounted to 100%.

Consider `CCS(=O)(=O)C[C@H](C)NC(=O)c1c(Cl)cccc1C(=O)Nc1ccc(C(F)(C(F)F)C(F)(F)F)cc1Cl` (stereo partly shown) [Compound 55], for which the melting point was 175 °C. Moreover, in data set [5], the pest or weed control at 20 ppm was determined as 100%.

With `CCS(=O)(=O)C[C@H](C)NC(=O)c1c(Br)cccc1C(=O)Nc1ccc(C(F)(C(F)(F)F)C(F)(F)Br)cc1C` (stereo partly shown) [Compound 57], the pest or weed control at 20 g/ha in data set [1] came to 100%.

For the molecule `CCS(=O)(=O)C[C@H](C)NC(=O)c1c(Br)cccc1C(=O)Nc1ccc(C(F)(C(F)F)C(F)(F)F)cc1Cl` (stereo partly shown) [Compound 58], the melting point came to 118 °C. Also, in data set [5], the pest or weed control at 20 ppm amounted to 100%.

Consider `Cc1cc(C(C(F)F)C(F)(F)F)ccc1NC(=O)c1cccc(I)c1C(=O)N[C@@H](C)C[S+](C)[O-]` (stereo partly shown) [Compound 60], for which, in data set [1], the pest or weed control at 20 g/ha was found to be 100%.

As for `CC[S+]([O-])C[C@H](C)NC(=O)c1c(I)cccc1C(=O)Nc1ccc(C(C(F)F)C(F)(F)F)cc1C` (stereo partly shown) [Compound 61], the pest or weed control at 20 g/ha in data set [1] was determined as 100%.

On to `Cc1cc(C(C(F)F)C(F)(F)F)ccc1NC(=O)c1cccc(Cl)c1C(=O)N[C@@H](C)C[S+](C)[O-]` (stereo partly shown) [Compound 62], for which the pest or weed control at 100 g/ha in data set [3] stood at 100%.

Regarding `CSC[C@H](C)NC(=O)c1c(Br)cccc1C(=O)Nc1ccc(C(F)(C(F)(F)F)C(F)(F)Br)cc1C` (stereo partly shown) [Compound 63], the pest or weed control at 100 g/ha in data set [3] was 90%.

Regarding `Cc1cc(C(F)(C(F)(F)F)C(F)(F)Br)ccc1NC(=O)c1cccc(Br)c1C(=O)N[C@@H](C)CS(C)(=O)=O` (stereo partly shown) [Compound 64], the pest or weed control at 20 g/ha in data set [2] was determined as 90%.

For the molecule `Cc1cc(C(F)(C(F)(F)F)C(F)(F)Br)ccc1NC(=O)c1cccc(I)c1C(=O)N[C@@H](C)C[S+](C)[O-]` (stereo partly drawn) [Compound 65, N^1-[4-(2-Bromo-1,2,2-trifluoro-1-trifluoromethyl-ethyl)-2-methyl-phenyl]-3-iodo-N^2-[2-methanesulfinyl-(S)-1-methyl-ethyl]-phthalamide], the pest or weed control at 200 g/ha in data set [2] (200 g/ha) was found to be 100%.

With `Cc1cc(C(F)(C(F)F)C(F)(F)F)ccc1NC(=O)c1cccc(I)c1C(=O)N[C@@H](C)C[S+](C)[O-]` (stereo partly shown) [Compound 66], the pest or weed control at 100 g/ha in data set [3] was found to be 100%. Further, the pest or weed control at 20 g/ha in data set [2] came to 100%.

The molecule `CCSC[C@H](C)NC(=O)c1c(Br)cccc1C(=O)Nc1ccc(C(F)(C(F)F)C(F)(F)F)cc1Br` (stereo partly shown) [Compound 68] came in with a melting point of 140 to 142 °C. Besides, in data set [5], the pest or weed control at 20 ppm is 100%.

(Values after patent US20090118375A1, “Optically active phthalamides” (priority 2004, published 2009).)
